Measured values: US20230233541A1, “SUBSTITUTED BENZAMIDES AS MODULATORS OF TREX1” (Constellation Pharmaceuticals, Inc., priority 2020, published 2023)

How the values were obtained:
full length human TREX1 = biological target: T1, full length human TREX1 (Homo sapiens, UniProt Q9NSU2); assay: TREX1 Biochemical Assay (fluorescence assay, degradation of dsDNA substrate); settings: 150 pM TREX1, 60 nM dsDNA substrate, 25 minutes at room temperature; read-out: hTREX1 EC50
T1 construct: N-terminally His-Tev tagged full length human TREX1; His-Tev (His tag with TEV protease site) (N); made in house; host or cells: E. coli
T1 sequence (Q9NSU2 1-314): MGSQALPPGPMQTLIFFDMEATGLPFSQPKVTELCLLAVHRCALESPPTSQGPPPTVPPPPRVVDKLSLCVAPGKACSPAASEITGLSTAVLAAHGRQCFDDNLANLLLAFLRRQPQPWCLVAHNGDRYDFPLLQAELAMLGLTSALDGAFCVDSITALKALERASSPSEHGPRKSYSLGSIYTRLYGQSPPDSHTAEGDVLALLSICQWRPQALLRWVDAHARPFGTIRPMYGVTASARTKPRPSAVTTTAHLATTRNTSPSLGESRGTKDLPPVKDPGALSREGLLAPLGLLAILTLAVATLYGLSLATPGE
Experimental: Degradation of the dsDNA liberates free fluorophore to produce a fluorescent signal. Specifically, 7.5 μL of N-terminally His-Tev tagged full length human TREX1 (expressed in E. coli and purified in house) in reaction buffer (50 mM Tris (pH 7.4), 150 mM NaCl, 2 mM DTT, 0.1 mg/mL BSA, 0.01% (v/v) Tween-20 and 100 mM MgCl2) was added to a 384-well Black ProxiPlate Plus (Perkin Elmer) which already contained compound (150 nL) at varying concentrations as a 10-point dose-response in DMSO. To this was added 7.5 μL of dsDNA substrate (Strand A: 5′ TEX615/GCT AGG CAG 3′; Strand B: 5′ CTG CCT AGC/IAbRQSp (Integrated DNA Technologies)) in reaction buffer. Final concentrations were 150 pM TREX1, 60 nM dsDNA substrate in reaction buffer with 1.0% DMSO (v/v). After 25 minutes at room temperature, reactions were quenched by the addition of 5 μL of stop buffer (same as reaction buffer plus 200 mM EDTA). Final concentrations in the quenched reaction were 112.5 pM TREX1, 45 nM DNA and 50 mM EDTA in a volume of 20 μL. After a 5-minute incubation at room temperature, plates were read in a laser sourced Envision (Perkin-Elmer), measuring fluorescence at 615 nm following excitation w/570 nm light. IC50 values were calculated by comparing the measured fluorescence at 615 nm ratio relative to control wells pre-quenched w/stop buffer (100% inhibition) and no inhibitor (0% inhibition) controls as using non-linear least square four parameter fits and either Genedata or GraphPad Prism (GraphPad Software, Inc.).

[1] = biological target: T2, human TREX2 (residues M44-A279) (Homo sapiens, UniProt Q9BQ50); assay: TREX2 Biochemical Assay (fluorescence assay, degradation of dsDNA substrate); settings: 2.5 nM TREX2, 60 nM dsDNA substrate, 25 minutes at room temperature; read-out: hTREX2 EC50
T2 construct: human TREX2 (residues M44-A279, expressed in E. coli); His-Tev (His tag with TEV protease site) (N); made in house; host or cells: E. coli
T2 sequence (Q9BQ50 44-279 isoform Q9BQ50-1): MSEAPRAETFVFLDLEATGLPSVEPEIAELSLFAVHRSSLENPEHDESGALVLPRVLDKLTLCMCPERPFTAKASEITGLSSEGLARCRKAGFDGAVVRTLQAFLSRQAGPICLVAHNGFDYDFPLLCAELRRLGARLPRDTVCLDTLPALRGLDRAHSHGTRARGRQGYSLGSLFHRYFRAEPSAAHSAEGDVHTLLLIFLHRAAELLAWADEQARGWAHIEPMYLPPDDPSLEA
Experimental: Degradation of the dsDNA liberates free fluorophore to produce a fluorescent signal. Specifically, 7.5 μL of N-terminally His-Tev tagged human TREX2 (residues M44-A279, expressed in E. coli and purified in house) in reaction buffer (50 mM Tris (pH 7.4), 150 mM NaCl, 2 mM DTT, 0.1 mg/mL BSA, 0.01% (v/v) Tween-20 and 100 mM MgCl2) was added to a 384-well Black ProxiPlate Plus (Perkin Elmer) which already contained compound (150 nL) at varying concentrations as a 10-point dose-response in DMSO. To this was added 7.5 μL of dsDNA substrate (Strand A: 5′ TEX615/GCT AGG CAG 3′; Strand B: 5′ CTG CCT AGC/IAbRQSp (IDT)) in reaction buffer. Final concentrations were 2.5 nM TREX2, 60 nM dsDNA substrate in reaction buffer with 1.0% DMSO (v/v). After 25 minutes at room temperature, reactions were quenched by the addition of 5 μL of stop buffer (same as reaction buffer plus 200 mM EDTA). Final concentrations in the quenched reaction mixture were […] TREX2, 45 nM DNA and 50 mM EDTA in a volume of 20 μL. After a 5-minute incubation at room temperature, plates were read in a laser sourced Envision (Perkin-Elmer), measuring fluorescence at 615 nm following excitation w/570 nm light. IC50 values were calculated by comparing the measured fluorescence at 615 nm ratio relative to control wells pre-quenched w/stop buffer (100% inhibition) and no inhibitor (0% inhibition) controls as using non-linear least square four parameter fits and either Genedata or GraphPad Prism (GraphPad Software, Inc.).

| SMILES | EC50 (full length human TREX1) | EC50 [1] |
| --- | --- | --- |
| O=C(c1ccc(CO)cc1)N(Cc1cccnc1)Cc1ccc(Cl)cc1Cl [Compound 83] | > 10 µM | > 100 µM |
| O=C(c1ccc(CO)cc1F)N(Cc1cccnc1)Cc1ccc(Cl)cc1Cl [Compound 84] | > 10 µM | > 100 µM |
| CC(C)c1ccc(C(=O)N(Cc2cccnc2)Cc2ccc(Cl)cc2Cl)cc1 [Compound 85] | > 10 µM | > 100 µM |
| O=C(C1CCC(O)CC1)N(Cc1cccnc1)Cc1ccc(Cl)cc1Cl (stereo not drawn) [Compound 86] | > 10 µM | > 100 µM |
| COc1cc(Br)cc(C(=O)N(Cc2cccnc2)Cc2ccc(Cl)cc2Cl)c1 [Compound 87] | > 10 µM | > 100 µM |
| CCC(=O)N(Cc1cccnc1)Cc1ccc(Cl)cc1Cl [Compound 88] | > 10 µM | > 100 µM |
| O=C(C1CCOCC1)N(Cc1cccnc1)Cc1ccc(Cl)cc1Cl [Compound 89] | > 10 µM | > 100 µM |
| CC(C)Oc1ccc(C(=O)N(Cc2cccnc2)Cc2ccc(Cl)cc2Cl)cc1 [Compound 90] | > 10 µM | > 100 µM |
| O=C(CN1CCCC1)N(Cc1cccnc1)Cc1ccc(Cl)cc1Cl [Compound 91] | > 10 µM | > 100 µM |
| COCC(=O)N(Cc1cccnc1)Cc1ccc(Cl)cc1Cl [Compound 92] | > 10 µM | > 100 µM |
| O=C(CCCCc1ccccc1)N(Cc1cccnc1)Cc1ccc(Cl)cc1Cl [Compound 93] | > 10 µM | > 100 µM |
| O=C(Cc1ccccc1)N(Cc1cccnc1)Cc1ccc(Cl)cc1Cl [Compound 94] | > 10 µM | > 100 µM |
| O=C(c1cccc(F)c1)N(Cc1ccccn1)Cc1ccc(Cl)cc1Cl [Compound 95] | > 10 µM | > 100 µM |
| O=C(c1cccc(F)c1)N(Cc1ccccc1)Cc1ccc(Cl)cc1Cl [Compound 96] | > 10 µM | > 100 µM |
| O=C(c1cccc(F)c1)N(Cc1ccncc1)Cc1ccc(Cl)cc1Cl [Compound 97] | > 10 µM | > 100 µM |
| O=C(c1ccc(F)cc1)N(Cc1cccnc1)Cc1ccc(Cl)cc1Cl [Compound 98] | > 10 µM | > 100 µM |
| O=C(c1ccc(F)cn1)N(Cc1cccnc1)Cc1ccc(Cl)cc1Cl [Compound 99] | > 10 µM | > 100 µM |
| O=C(c1cncnc1)N(Cc1cccnc1)Cc1ccc(Cl)cc1Cl [Compound 100] | > 10 µM | > 100 µM |
| O=C(c1ccc(F)c(F)c1)N(Cc1cccnc1)Cc1ccc(Cl)cc1Cl [Compound 101] | 1 to 10 µM | > 100 µM |
| O=C(c1ncccn1)N(Cc1cccnc1)Cc1ccc(Cl)cc1Cl [Compound 102] | > 10 µM | > 100 µM |
| N#Cc1ccc(C(=O)N(Cc2cccnc2)Cc2ccc(Cl)cc2Cl)cc1 [Compound 103] | > 10 µM | > 100 µM |
| Cc1ncc(C(=O)N(Cc2cccnc2)Cc2ccc(Cl)cc2Cl)cn1 [Compound 104] | > 10 µM | > 100 µM |
| O=C(c1cccc(F)c1)N(Cc1ccc(C(F)(F)F)nc1)Cc1ccc(Cl)cc1Cl [Compound 105] | > 10 µM | > 100 µM |
| O=C(c1cccc(F)c1)N(Cc1cncnc1)Cc1ccc(Cl)cc1Cl [Compound 106] | 1 to 10 µM | > 100 µM |

| SMILES | EC50 (full length human TREX1) | EC50 [1] |
| --- | --- | --- |
| O=C(c1cccc(F)c1)N(Cc1cccnn1)Cc1ccc(Cl)cc1Cl [Compound 107] | > 10 µM | > 100 µM |
| Cc1ncc(CN(Cc2ccc(Cl)cc2Cl)C(=O)c2cccc(F)c2)cn1 [Compound 108] | > 10 µM | > 100 µM |
| O=C(c1cccc(F)c1)N(Cc1cnc2ccccc2c1)Cc1ccc(Cl)cc1Cl [Compound 109] | > 10 µM | > 100 µM |
| Cc1ccc(CN(Cc2ccc(Cl)cc2Cl)C(=O)c2cccc(F)c2)cn1 [Compound 110] | > 10 µM | > 100 µM |
| O=C(c1cccc(F)c1)N(Cc1cnccn1)Cc1ccc(Cl)cc1Cl [Compound 111] | 1 to 10 µM | > 100 µM |
| Cn1cc(CN(Cc2ccc(Cl)cc2Cl)C(=O)c2cccc(F)c2)cn1 [Compound 112] | > 10 µM | > 100 µM |
| O=C(c1cocn1)N(Cc1cccnc1)Cc1ccc(Cl)cc1Cl [Compound 113] | > 10 µM | > 100 µM |
| O=C(c1cnon1)N(Cc1cccnc1)Cc1ccc(Cl)cc1Cl [Compound 114] | > 10 µM | > 100 µM |
| Cc1noc(C)c1C(=O)N(Cc1cccnc1)Cc1ccc(Cl)cc1Cl [Compound 115] | > 10 µM | > 100 µM |
| Cc1nonc1C(=O)N(Cc1cccnc1)Cc1ccc(Cl)cc1Cl [Compound 116] | > 10 µM | > 100 µM |
| O=C(c1cnco1)N(Cc1cccnc1)Cc1ccc(Cl)cc1Cl [Compound 117] | > 10 µM | > 100 µM |
| O=C(c1ccon1)N(Cc1cccnc1)Cc1ccc(Cl)cc1Cl [Compound 118] | > 10 µM | > 100 µM |
| O=C(c1cc(F)c(F)c(F)c1)N(Cc1cccnc1)Cc1ccc(Cl)cc1Cl [Compound 119] | 0.1 to 1 µM | 10 to 100 µM |
| O=C(c1cc(F)c(F)cc1F)N(Cc1cccnc1)Cc1ccc(Cl)cc1Cl [Compound 120] | > 10 µM | > 100 µM |
| O=C(c1cc(F)cc(F)c1)N(Cc1cccnc1)Cc1ccc(Cl)cc1Cl [Compound 121] | 0.1 to 1 µM | 10 to 100 µM |
| O=C(c1cc(F)ccc1F)N(Cc1cccnc1)Cc1ccc(Cl)cc1Cl [Compound 122] | > 10 µM | > 100 µM |
| O=C(c1ccc(F)c(F)c1F)N(Cc1cccnc1)Cc1ccc(Cl)cc1Cl [Compound 123] | 1 to 10 µM | > 100 µM |
| O=C(c1cccc(F)c1F)N(Cc1cccnc1)Cc1ccc(Cl)cc1Cl [Compound 124] | 1 to 10 µM | > 100 µM |
| COc1ccccc1CN(Cc1cccnc1)C(=O)c1cccc(F)c1 [Compound 125] | > 10 µM | > 100 µM |
| Cn1ncc2cc(CN(Cc3cccnc3)C(=O)c3cccc(F)c3)ccc21 [Compound 126] | > 10 µM | > 100 µM |
| COc1cccc(CN(Cc2cccnc2)C(=O)c2cccc(F)c2)c1Cl [Compound 127] | 1 to 10 µM | > 100 µM |
| Cn1ncc2ccc(CN(Cc3cccnc3)C(=O)c3cccc(F)c3)cc21 [Compound 128] | 1 to 10 µM | > 100 µM |
| O=C(c1cccc(F)c1)N(Cc1cccnc1)Cc1ccccc1F [Compound 129] | > 10 µM | > 100 µM |
| O=C(c1cccc(F)c1)N(Cc1cccnc1)Cc1c(F)cccc1Cl [Compound 130] | 1 to 10 µM | 10 to 100 µM |
